Experimental findings from patent publication US20050100555A1, “Homing peptides” (KING'S COLLEGE LONDON An Institute Incorporated by Royal …, priority 2001, published 2005) are described below.

In assay [1] the test system is human synovium and skin grafts (OA patient). Conditions: OA synovium and skin double transplants, 15 min recirculation.
Experimental: To assess whether the synovial homing properties were due to the intrinsic characteristics of the synovium or related to the disease status (e.g. RA vs OA), pooled clones recovered from the last round of in vivo selection (3rd and 4th round of the experiments described above) were tested in recirculation studies in vivo using SCID animals double transplanted with skin and human synovium from a patient with OA. As previously, equivalent amounts of strep-clone-1 phage were injected intravenously into control animals.
Assay [2] relates to human synovial grafts. Conditions: 1×10^11 pfu i.v., double transplanted RA synovium and skin.
Experimental: Selection in vivo of synovial specific phage. Synovial homing phage were isolated by 3-4 cycles of enrichment in SCID mice transplanted with human tissues at 4-6 weeks of age. Four weeks post-transplantation the pep-PDL library (1×10^11 pfu in 200 μL saline final volume) was injected into the tail vein of anaesthetized animals. After 15 minutes (in vivo phage circulation time), while under deep/terminal anaesthesia (Sagatal, 5 μg/mouse, Rhone Merieux, France) the mice were perfused via the left ventricle with approximately 50-100 mL of saline to ensure phage clearance from the blood pool. Grafts and various mouse organs were then extracted and divided into two aliquots, weighed and processed as necessary for phage recovery and histological analysis. The aliquot assigned for immunohistology was embedded in Optimal Cutting Temperature compound (OCT, Miles, Calif.), snap frozen in liquid nitrogen cooled isopentane (BDH) and stored at −70° C. until analysis. The aliquot used for phage recovery was washed three times in TBS (150 mM NaCl, 50 nm Tris, pH7.4, Sigma, Poole, UK) then homogenized in 1 ml of TBS containing protease inhibitor cocktail (Sigma). […] After a 37° C. overnight incubation the peptide phage, appearing as blue plaques, were counted and the yield of phage localising to each individual tissue determined. […]
Assay [3] deals with human synovial grafts. As to the kind of experiment: Synovial homing of single phage clones in SCID mice transplanted with human synovium. In kind it is in vivo. The settings on record: 1×10^11 pfu i.v., 15 minutes recirculation; for localization of phage clone to synovial grafts in comparison to strep-clone-1 phage control: SCID mice with human synovium grafts. How it is done:
(§1) Selection in vivo of synovial specific phage.
Confirmation of synovial homing specificity in single phage clones displaying consensus motifs. 1×10^11 pfu (200 μL saline fmal volume) of three single phage clones (1.23, 2.10 and 3.1) displaying consensus motifs or the strep-clone-1 phage control were and injected intravenously in separate animals transplanted with human synovium as described in ‘Selection in vivo ofsynovial specific phage’. The number of study and control clone phage localising to synovial grafts was determined as described in the same section.

For assay [4], the system named is human microvascular endothelium in synovial grafts. As to the kind of experiment: Assessment of graft localization of biotinylated peptides (ABC-AP immunohistology). The class given is in vivo. Conditions: for localisation of biotinylated peptide to synovial grafts (immunoreactivity): 500 μg/mouse with 3.1 phage clone, ABC-AP, Vector Red. On the procedure:
(§2) Competitive localisation to human synovial grafts of synthetic biotinylated peptide […] against the parent 3.1 phage clone. SCID mice were transplanted with human synovial tissue and injected intravenously, as describe above for the in vivo selection experiments, with 1×10^11 tpfu of 3.1 phage clone in presence or absence of increasing concentrations of the biotinylated CKSTHRDLC synthetic peptide (50, 250 and 500 μg/mouse in 200 μL dose volume) or the biotinylated CGTWSHPQC synthetic peptide control. Controls also included animals injected with 1×10^11 pfu of strep-clone-1 or biotin alone. After 15 minutes circulation time, mice were perfused and the number of phage in the transplants determined as described above. Histological analysis was performed as described below.
Assessment of graft localization of biotinylated peptides. The graft localisation of the biotinylated CKSTHRDLC synthetic peptide was assessed by using the alkaline phosphatase avidin biotin complex (ABC-AP) detection system (Dako, UK) and visualised by Vector Red substrate (Novacastra, UK).

Assay [5] relates to human synovial grafts (cognate synovial MVE ligand). Description: Competitive localisation to human synovial grafts of synthetic biotinylated peptide against parent 3.1 phage clone. Conditions: for effect on graft localisation of the 3.1 phage clone: 50, 250 and 500 μg/mouse with 3.1 phage clone. The class given is in vivo. How it is done:
as §1, §2

The subject of another assay is murine kidney. As to the kind of experiment: Phage recovery from murine kidney in the competitive localisation experiment. The class given is in vivo, mouse. The settings on record: with or without study or control peptide. How it is done: as §1, §2

Entries after “also recorded” stand apart in the source; their conditions may differ. No end group written: not given here.

With C-G-T-W-S-H-P-Q-C [strep-clone-1], the “number of phage recovered from synovial grafts versus skin grafts” value in assay [1] is “virtually the same”. In addition, the “localisation of phage to synovial grafts, skin grafts and mouse kidney” value in the assay on human synovial grafts [2] is listed as “comparable low levels of localisation in all three tissues”.
Turning to CDRLNHQFC [2.10], the “localization of phage clone to synovial grafts in comparison to strep-clone-1 phage control” value (“localization of phage clone” for short) in the assay with human synovial grafts [3] is on record as “significantly greater localization”.
Regarding “CGTWSHPQC (cysteine pairing not given here; also: biotinylated, site not given here) [reference compound]”, the “localisation of biotinylated peptide to synovial grafts (immunoreactivity)” value in assay [4] is “no specific immunoreactivity”. In addition, in assay [5], the “effect on graft localisation of the 3.1 phage clone” value was “no significant effect”.
“CKSTHDRLC (not fully specified; cysteine pairing not given here; also: biotinylated, site not given here)”: in assay [4] (500 μg/mouse), the “site of peptide binding within synovial grafts (double staining with anti-human vWf-FITC)” value was “specific immunoreactivity co-localising with human vasculature; also recorded: binds principally to human microvascular endothelium”. The “localisation of biotinylated peptide to synovial grafts (immunoreactivity)” value in assay [4] is given as “strongly localises in vivo to synovial grafts”. Further, the “effect on graft localisation of the 3.1 phage clone” value in assay [5] is reported as “dramatically inhibits in a dose dependent fashion”. Besides, the “inhibition of graft localisation of the parent 3.1 phage clone” value in assay [5] (at maximal dose (500 μg/mouse i.v.), 15 minutes circulation) is “over 80%”.
Regarding CKSTHDRLC [3.1], in the assay on murine kidney, the “level of phage localisation to murine kidney” value is reported as “only minimal ‘background’ localisation”. For the same substance, in the assay with human synovial grafts [3], the “increase of synovial graft localization over the control strep-clone-1 phage” value is given as “approximately 10 fold” and the “localization of phage clone” value was “significantly greater localization”. Further, in assay [5] (phage alone, 15 minutes circulation), the “graft localisation relative to strep-clone-1 control” value is reported as “approximately nine times more”.
On to CTHSSATQC [1.23], for which, in the assay with human synovial grafts [3], the “localization of phage clone” value is recorded as “significantly greater localization”.
